Source: US20230303549A1, “SUBSTITUTED HETEROARYLOXYPYRIDINES, THE SALTS THEREOF AND THEIR USE AS HERBICIDAL AGENTS” (Bayer Aktiengesellschaft, priority 2020, published 2023)

What was measured:
Format in all cases: in vivo
[1] = test system: Alopecurus myosuroides (ALOMY); test: Post-emergence herbicidal efficacy at 80 g/ha, greenhouse pot test; conditions: visual rating vs untreated control after about 3 weeks
Method in brief: (§1)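 Visual rating of activity versus untreated plants after about 3 greenhouse weeks, 0% meaning control-like and 100% meaning dead. Plants in sandy loam were sprayed at one-leaf stage (2–3 weeks post-sowing) with WP/EC compound suspensions or emulsions, 0.5% additive, 600 l/ha water.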

[2] = test system: Amaranthus retroflexus (AMARE); test: as above; conditions: visual rating vs untreated control after about 3 weeks
Method in brief: as §1

Viola tricolor (VIOTR) [3] = test: as above; conditions: visual rating vs untreated control after about 3 weeks
Method in brief: as §1

[4] = test system: Alopecurus myosuroides (ALOMY); test: Post-emergence herbicidal efficacy at 320 g/ha, greenhouse pot test; conditions: visual rating vs untreated control after about 3 weeks
Method in brief: (§2)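 Scoring was visual, about 3 weeks post-treatment, versus untreated plants on a 0–100% scale (100% = dead). Foliar application to one-leaf-stage greenhouse weeds in sandy loam, compounds as aqueous WP/EC suspension or emulsion with 0.5% additive, 600 L/ha spray volume.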

Veronica persica (VERPE) [5] = test: as above; conditions: 320 g/ha, visual rating vs untreated control after about 3 weeks
Method in brief: as §2

Stellaria media (STEME) [6] = test: as above; conditions: visual rating vs untreated control after about 3 weeks
Method in brief: as §2

[7] = test system: Amaranthus retroflexus (AMARE); test: as above; conditions: visual rating vs untreated control after about 3 weeks
Method in brief: as §2

[8] = test system: Echinochloa crus-galli (ECHCG); test: as above; conditions: visual rating vs untreated control after about 3 weeks
Method in brief: as §2

[9] = test system: Alopecurus myosuroides (ALOMY); test: Pre-emergence herbicide efficacy at 80 g/ha, greenhouse pot test; conditions: visual scoring vs untreated control after about 3 weeks
Method in brief: (§3)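 Seeds were sown in pots and covered with soil, then the compound (WP or EC formulation) was sprayed onto the soil surface as an aqueous suspension or emulsion with 0.5% additive. Pots were kept in a greenhouse, and after about 3 weeks activity was scored visually versus untreated controls (100% = plants dead, 0% = like control).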

Setaria viridis (SETVI) [10] = test: as above; conditions: visual scoring vs untreated control after about 3 weeks
Method in brief: as §3

Veronica persica (VERPE) [11] = test: as above; conditions: visual scoring vs untreated control after about 3 weeks
Method in brief: as §3

[12] = test system: Abutilon theophrasti (ABUTH); test: as above; conditions: visual scoring vs untreated control after about 3 weeks
Method in brief: as §3

[13] = test system: Amaranthus retroflexus (AMARE); test: as above; conditions: visual scoring vs untreated control after about 3 weeks
Method in brief: as §3

[14] = test system: Matricaria inodora (MATIN); test: as above; conditions: visual scoring vs untreated control after about 3 weeks
Method in brief: as §3

Viola tricolor (VIOTR) [15] = test: as above; conditions: visual scoring vs untreated control after about 3 weeks
Method in brief: as §3

[16] = test system: Polygonum convolvulus (POLCO); test: as above; conditions: visual scoring vs untreated control after about 3 weeks
Method in brief: as §3

[17] = test system: Alopecurus myosuroides (ALOMY); test: Pre-emergence herbicide efficacy at 320 g/ha, greenhouse pot test; conditions: visual scoring vs untreated control after about 3 weeks
Method in brief: (§4)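 Pre-emergence, greenhouse: sandy loam pots, seeds covered with soil; compound as WP/EC in water + 0.5% additive, 600 L/ha spray volume onto covering soil. Readout: visual % effect at ~3 wk vs untreated (100% = dead, 0% = as control).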

Setaria viridis (SETVI) [18] = test: as above; conditions: visual scoring vs untreated control after about 3 weeks
Method in brief: as §4

Veronica persica (VERPE) [19] = test: as above; conditions: visual scoring vs untreated control after about 3 weeks
Method in brief: as §4

Stellaria media (STEME) [20] = test: as above; conditions: visual scoring vs untreated control after about 3 weeks
Method in brief: as §4

[21] = test system: Digitaria sanguinalis (DIGSA); test: as above; conditions: visual scoring vs untreated control after about 3 weeks
Method in brief: as §4

[22] = test system: Abutilon theophrasti (ABUTH); test: as above; conditions: visual scoring vs untreated control after about 3 weeks
Method in brief: as §4

Poa annua (POAAN) [23] = test: as above; conditions: visual scoring vs untreated control after about 3 weeks
Method in brief: as §4

[24] = test system: Amaranthus retroflexus (AMARE); test: as above; conditions: visual scoring vs untreated control after about 3 weeks
Method in brief: as §4

[25] = test system: Matricaria inodora (MATIN); test: as above; conditions: visual scoring vs untreated control after about 3 weeks
Method in brief: as §4

[26] = test system: Echinochloa crus-galli (ECHCG); test: as above; conditions: visual scoring vs untreated control after about 3 weeks
Method in brief: as §4

[27] = test system: Abutilon theophrasti (ABUTH); test: Post-emergence herbicidal efficacy at 320 g/ha, greenhouse pot test; conditions: visual rating vs untreated control after about 3 weeks
Method in brief: as §2

Poa annua (POAAN) [28] = test: as above; conditions: visual rating vs untreated control after about 3 weeks
Method in brief: as §2

Bassia scoparia (KCHSC) = test: Pre-emergence herbicide efficacy at 320 g/ha, greenhouse pot test; conditions: dosage 1280 g/ha in Table C6, visual scoring after about 3 weeks
Method in brief: as §4

SMILES | Post-emergence efficacy against Viola tricolor (VIOTR) (Viola tricolor (VIOTR) [3]) | Post-emergence efficacy against Alopecurus myosuroides (ALOMY) [4] | Post-emergence efficacy against Veronica persica (VERPE) (Veronica persica (VERPE) [5]) | Post-emergence action against Stellaria media (STEME) (Stellaria media (STEME) [6]) | Post-emergence efficacy against Amaranthus retroflexus (AMARE) [7] | Post-emergence efficacy against Echinochloa crus-galli (ECHCG) [8] | Pre-emergence efficacy against Setaria viridis (SETVI) (Setaria viridis (SETVI) [10]) | Pre-emergence efficacy against Veronica persica (VERPE) (Veronica persica (VERPE) [11]) | Pre-emergence efficacy against Amaranthus retroflexus (AMARE) [13] | Pre-emergence efficacy against Matricaria inodora (MATIN) [14] | Pre-emergence efficacy against Viola tricolor (VIOTR) (Viola tricolor (VIOTR) [15]) | Pre-emergence efficacy against Setaria viridis (SETVI) (Setaria viridis (SETVI) [18]) | Pre-emergence efficacy against Veronica persica (VERPE) (Veronica persica (VERPE) [19]) | Pre-emergence efficacy against Stellaria media (STEME) (Stellaria media (STEME) [20]) | Pre-emergence efficacy against Abutilon theophrasti (ABUTH) [22] | Pre-emergence efficacy against Poa annua (POAAN) (Poa annua (POAAN) [23]) | Pre-emergence efficacy against Amaranthus retroflexus (AMARE) [24] | Pre-emergence efficacy against Matricaria inodora (MATIN) [25] | Pre-emergence efficacy against Echinochloa crus-galli (ECHCG) [26] | also measured
Cc1cc(C)c(-c2cc(C(F)(F)F)on2)c(Oc2ncc(Cl)cn2)n1 [Example I-7] | 90% | 90% | 100% | 100% | 90% | 90% | 100% | 90% | 100% | 90% | 100% | 100% | 100% | 100% | 100% | 100% | 100% | 100% | 100% | Post-emergence efficacy against Alopecurus myosuroides (ALOMY) [1]: 90%; Post-emergence efficacy against Amaranthus retroflexus (AMARE) [2]: 80%; Pre-emergence efficacy against Alopecurus myosuroides (ALOMY) [9]: 100%; Pre-emergence efficacy against Abutilon theophrasti (ABUTH) [12]: 100%; Pre-emergence efficacy against Polygonum convolvulus (POLCO) [16]: 90%; Pre-emergence efficacy against Alopecurus myosuroides (ALOMY) [17]: 90%; Pre-emergence efficacy against Digitaria sanguinalis (DIGSA) [21]: 100%
Cc1cc(C)c(-c2cc(C(F)F)no2)c(Oc2ccc(Cl)cn2)n1 [Example I-43] | 80% | 90% | 100% | 100% | 100% | 90% | 90% | 90% | 100% | 90% | 80% | 100% | 100% | 100% | 100% | 100% | 100% | 90% | 90% | Post-emergence efficacy against Abutilon theophrasti (ABUTH) [27]: 90%; Post-emergence efficacy against Poa annua (POAAN) (Poa annua (POAAN) [28]): 90%; Pre-emergence efficacy against Bassia scoparia (KCHSC) (Bassia scoparia (KCHSC)): 100%
